Results on 79 compounds are retold here after the METLIN SMRT retention time set (Domingo-Almenara et al. 2019).

The structures appear in SMILES notation.

This series in a line: gradient 5% acetonitrile 3 min, to 50% in 2 min, to 85% in 15 min, held 3 min, 100 µL/min. Particulars: column: Zorbax Extend-C18 2.1 x 50 mm; eluents: water / acetonitrile, 0.1% formic acid. Summed up:
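Using water and acetonitrile that each contained 0.1% formic acid, mixtures of ~100 pure standards were separated at 100 μL/min on a Zorbax Extend-C18 column (2.1 × 50 mm, 1.8 μm). The HPLC fed a quadrupole time-of-flight mass spectrometer working in positive and negative ionization mode, with dead and dwell volumes of 40 μL and 900 μL. Data were acquired over 3 months. Retention time was read from computationally picked adduct peaks after manual inspection of each.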
`Cc1ncoc1C(=O)N1CCC(N2CC(OCC3CC3)C23CCOCC3)CC1` (centres undefined) showed an RP-LC retention time of 587 s.
The result for `O=S(=O)(Cc1ccccc1)N1CCC(n2c(-c3ccco3)nc3cccnc32)C1` (centres undefined) reads 802 s; that for `CCOc1ccc(NC(=O)Nc2cc(C(C)C)ccc2C)cc1`, 1160 s.
Consider `O=C(NCc1ccccn1)c1cccc(N2CCNC(c3ccccc3)C2)n1` (centres undefined), for which the RP-LC retention time amounted to 564 s.
Under `Fc1ccc(-c2nc(-c3cn(-c4ccccc4)nn3)no2)cc1` stands 607 s; under `Cc1ccc(C)c(N(C)C(=O)C2CCCN(c3ncnc4c3nc3n4CCCCC3)C2)c1` (centres undefined), 899 s; under `Cc1ccc(NC(=O)CN2C(=O)NC3(CCCCC3)C2=O)cc1C`, 792 s.
The result for `O=C(Nc1cnc(-c2cccc(Cl)c2)nc1)c1ccccc1` reads 1070 s; that for `CS(=O)(=O)Nc1cccc(NC(=O)c2ccc(=O)n(Cc3ccccc3)n2)c1`, 718 s.
Compound `O=C(c1ccc(Cl)cc1Cl)N1CC(c2nc(C3CC3)no2)C1` had an RP-LC retention time of 818 s.
The result for `CCC(=O)N1CC(=O)N(CC)C2(CCOCC2)C1` reads 561 s.
Under `Cc1ccc(Nc2c(-c3ccc(N(C)C)cc3)nc3cnccn23)c(C)c1` stands 962 s; under `O=C(Cn1c(=O)oc2ccccc21)N1CCC2(CC1)NCCc1c2[nH]c2ccccc12`, 597 s.
The result for `O=C(O)CNC(=O)c1c(O)c2ccccc2n(Cc2ccccc2)c1=O` reads 989 s.
`CCOc1cc(=O)n2c(c1C(=O)Nc1ccc(F)cc1F)CCCC2`: the RP-LC retention time stood at 726 s.
Under `CCOC(=O)C1=C(CN2CCC(C(=O)OCC)CC2)NC(=O)NC1c1ccccc1` (centres undefined) stands 643 s; under `COc1cc(-c2nc3cc(C)ccn3c2Nc2ccc3c(c2)OCCO3)ccc1O`, 636 s.
The result for `CCNC(=O)C1CCCN(c2nc3ncn(CC(=O)Nc4ccc5c(c4)OCO5)c(=O)c3s2)C1` (centres undefined) reads 649 s; that for `Cc1ccn2cc(-c3ccc(NC(=O)c4ccc5ccccc5c4)cc3)nc2n1`, 710 s.
Under `COc1cccc(CCC(=O)N2C[C@@H]3C[C@H](NC(=O)c4ccccc4)[C@H]2C3)c1` stands 793 s; under `Nc1ccccc1C(=O)Nc1ccc(Cl)cc1Cl`, 1080 s.
For the compound `CCSc1nc(NC(C)C)c2cnn(CCNC(=O)Cc3c(C)noc3C)c2n1`, the RP-LC retention time amounted to 716 s.
The result for `CCc1sc(NC(=O)CCc2ccccc2)nc1-c1ccccc1` reads 1150 s.
Under `CC(C)c1nnc(-c2cccnc2N2CCN(C(=O)c3ccc4c(c3)OCO4)CC2)o1` stands 759 s; under `COc1ccc(C)cc1NC(=O)N(C)CCc1noc(COc2cccc(C)c2)n1`, 1020 s.
Under `Cc1noc(C)c1CN1CCCC(C)(c2nc(-c3ccccc3)no2)C1` (centres undefined) stands 623 s.
In the case of `O=C(c1ccc2c(c1)OCO2)N1CCN(c2cc(-c3cccs3)[nH]n2)CC1`, the RP-LC retention time came out at 732 s.
The compound `Cc1noc(-c2nn(C)c3c2CN(C(=O)Nc2ccc(F)cc2)CC3)n1` yielded an RP-LC retention time of 723 s.
Under `COc1ccc(-c2nc3ccccn3c2Nc2ccc3c(c2)OCCO3)cc1` stands 719 s; under `Fc1ccc(Cc2nc3nccc(-c4ccsc4)n3n2)cc1`, 905 s.
Under `COC(=O)CNC(=O)N1CCCC1c1ccccc1C` (centres undefined) stands 737 s; under `CCCN1CCN(C(=O)c2sc(-c3cn(C(C)C)c4ncccc34)nc2C)CC1`, 619 s; under `COC(=O)c1cccc(C(=O)Nc2cc(C)ccc2C)n1`, 936 s.
The result for `O=S(=O)(c1cccn2c(SCc3ccc(F)cc3)nnc12)N1CCCC1` reads 829 s.
As to `O=S(=O)(Cc1ccc(Cl)cc1)N1CCc2nc(-c3ccc(Cl)cc3)ncc2C1`, the RP-LC retention time was 1210 s.
The result for `Cc1ccc(CN2CCN(CC(=O)Nc3nc(-c4ccc(C)c(C)c4)cs3)CC2)cc1` reads 831 s.
Under `Cc1nn(CC(=O)NCCN2CCCCC2)c(=O)c2nc(-c3ccccc3)sc12` stands 623 s; under `O=C(Nc1ccc(-c2cn3cccnc3n2)cc1)c1cccc(Cl)c1`, 664 s.
The result for `O=C1NCCCn2cc(S(=O)(=O)Nc3ccc(Oc4ccccc4)cc3)cc21` reads 768 s.
Compound `COc1ccccc1OC(C)C(=O)N1CCN(c2nc(CN3CCOCC3)cs2)CC1` (centres undefined) displayed an RP-LC retention time of 621 s.
Under `COc1ccc(CCN2C(=O)CC(N3CCN(c4ccccc4)CC3)C2=O)cc1OC` (centres undefined) stands 780 s; under `O=C(NCCN1CCCC1)C1CCN(c2nccnc2Sc2ccccc2)CC1`, 645 s.
The result for `O=C1CCCC(=O)N1CCS(=O)(=O)N1CCN(Cc2nc3ccccc3[nH]2)CC1` reads 554 s; that for `COc1ccc(Cn2c(C(C)C)nc3sc4ccccc4c(=O)c3c2=O)cc1`, 975 s.
The result for `COc1cccc(NC(=O)C2CC(=O)N(c3ccc4c(c3)CCN4C(=O)C3CCC3)C2)c1` (centres undefined) reads 817 s; that for `CCc1cc(C(c2cccc(F)c2)N2CCN(C)CC2)c(NC(=O)c2ccccc2)s1` (centres undefined), 622 s.
With `Cc1ccc(N2CCC(NC(=O)c3ccc(Cl)s3)C2=O)cc1` (centres undefined), the RP-LC retention time is 888 s.
Under `CCc1nc(-c2csc(S(=O)(=O)N3CCCC(C(=O)N4CCc5ccccc54)C3)c2)no1` (centres undefined) stands 1110 s; under `Cc1nc(-c2ccccc2)nc2c1CCC(=O)N2C(C)C`, 1060 s.
In turn, `Cc1ccc(S(=O)(=O)NCCC(=O)O)cc1C` registered an RP-LC retention time of 639 s.
The result for `Cc1cc(Nc2cc(CN3CCOCC3)c3nc(C)c(Cc4ccc(Cl)cc4F)n3n2)n[nH]1` reads 712 s; that for `CCc1nnc([C@@H]2CC(F)(F)CN2C(=O)c2ocnc2C)o1`, 644 s.
The result for `COc1cc(-c2oc3cc(O)cc(O)c3c(=O)c2O[C@@H]2O[C@H](CO)[C@@H](O)[C@H](O)[C@H]2O)ccc1O` reads 684 s; that for `CCOCCCNC(=O)c1c2c(cn(-c3ccc(F)cc3)c1=O)C(=O)CC(C)(C)C2`, 859 s; that for `COc1cc(C)c(C)cc1S(=O)(=O)Nc1ccc2c(c1)C(=O)NCCO2`, 678 s.
The result for `COc1cc(Cl)ccc1C(=O)N1CCCN(C2CCN(CC3CC3)C2=O)CC1` (centres undefined) reads 574 s; that for `CCCCn1cc(S(=O)(=O)NCc2ccc(C)cc2)c2cccnc21`, 984 s.
`CCOc1ccccc1N1CCN(C(=O)c2csc(C(=O)NC3CC3)n2)CC1` gave an RP-LC retention time of 790 s.
`CCOc1ccc(Cc2nc(-c3ccc4oc(C)nc4c3)no2)cc1OCC` gave an RP-LC retention time of 1040 s.
`COCCn1cc2c3c(cccc31)CN(C(=O)Nc1cc(OC)cc(OC)c1)CC2`: the RP-LC retention time is 926 s.
Under `O=S(=O)(c1cccc(Cl)c1)c1nnn2c1nc(N1CCCC1)c1sccc12` stands 925 s; under `CC(C)c1ccc(-n2nc(N3CCN(C(=O)Cn4ccnc4)CC3)ccc2=O)cc1`, 731 s; under `Cc1cc(NCCCCCCCNc2cc(C)nc3cc(N)ccc23)c2ccc(N)cc2n1`, 612 s.
The result for `Cc1nc(-c2ccc3c(c2)CCN3C(=O)Cc2cccc(F)c2)cs1` reads 991 s; that for `Cc1nnc2cc(N3CCN(S(=O)(=O)c4ccc(C#N)cc4)CC3)cnn12`, 642 s; that for `Cc1cccc(-n2c(N3CCCC(C(=O)NCc4ccc(C)c(C)c4)C3)nc3ccsc3c2=O)c1` (centres undefined), 1020 s.
The result for `O=C1COc2ccccc2N1Cc1nc(-c2ccc(F)cc2)no1` reads 984 s; that for `CN(C)CCNC(=O)c1ccc2c(c1)nnn2Cc1ccccc1`, 567 s.
The compound `CCc1ccccc1NS(=O)(=O)c1cc2n(c1)CCCNC2=O` gave an RP-LC retention time of 663 s.
The result for `O=C(Nc1ccc2c(c1)OCCO2)c1cc2c(s1)CN(C1CCCC1)C2` reads 621 s.
`Cc1nccn1-c1ccc(=O)n(CCNC(=O)Cn2nc(-c3ccc(F)cc3)ccc2=O)n1` yielded an RP-LC retention time of 780 s.
In turn, `Cc1cc2c(c(=O)n(-c3ccc(F)cc3)c(=O)n2CC(=O)Nc2ccccc2C(F)(F)F)n1C` displayed an RP-LC retention time of 880 s.
In turn, `COc1cccc(N2C(=O)C3N=NN(Cc4nc(-c5ccc(C)c(C)c5)no4)C3C2=O)c1` (centres undefined) displayed an RP-LC retention time of 1030 s.
Under `Cc1onc(-c2ccccc2Cl)c1C(=O)Nc1cc(C(=O)N2CCCC2)cn(C)c1=O` stands 699 s; under `O=C(Cc1csc(Nc2ccc(Cl)cn2)n1)N1CCCc2ccccc21`, 919 s.
The result for `O=C(Nc1ccc(Cl)cc1)c1cccn1Cc1noc(C2CC2)n1` reads 1000 s; that for `C/C(=C\C(=O)Nc1ccccc1C(=O)O)c1ccc2ccccc2c1`, 1150 s.
Under `Cc1ccc(N2CCN(C(=O)C3=CCN(Cc4cccc(C)c4)CC3)CC2)cc1` stands 697 s.
Take `Cc1ccc(Cl)c(NS(=O)(=O)c2cc3c(s2)CCN(C(=O)C2CC2)C3)c1`: the RP-LC retention time is 901 s.
